These results are taken from the supplement of paper PMC12317010.

Counter-ions that a name gives are not always drawn.

This data set can be described thus: collision cross section in nitrogen (drift tube, single-field); higher = larger gas-phase ion size.
[1] abbreviates: ion type: [M+H], ion source: APCI, ion mode: Positive.
Where [2] appears, read: ion type: [M+H], ion source: ESI, ion mode: Positive.
Where [3] appears, read: ion type: [M+Na], ion source: ESI, ion mode: Positive.
The mark [4] stands for this setting: ion type: [M-H], ion source: ESI, ion mode: Negative.
Where [5] appears, read: ion type: [M+], ion source: APCI, ion mode: Positive.
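Further: chemical standards at 10 µM analysed by drift tube IMS-QTOF MS in about 3.95 torr nitrogen, mean of duplicate injections differing ≤1%, mass error below 10 ppm.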

Consider `c1coc(CNc2[nH]cnc3ncnc2-3)c1` [Kinetin], for which the “collision cross section in nitrogen” value reads like this: under setting [1], 144.3 Å²; under setting [2], 144.4 Å²; under setting [3], 159.2 Å²; under setting [4], 148.4 Å².

Consider `OC[C@@H](O)[C@H](O)[C@@H](O)[C@@H](O)CO` [L-Glucitol], for which the “collision cross section in nitrogen” value is, setting by setting: under setting [3], 142.9 Å²; under setting [4], 132.8 Å².

On to `N[C@@H](CCC(=O)O)C(=O)O` [L-Glutamic acid hydrochloride], for which the “collision cross section in nitrogen” value under setting [4] is 125.9 Å².

As for `N[C@@H](Cc1ccccc1)C(=O)O` [L-Phenylalanine], the “collision cross section in nitrogen” value under setting [4] turned out to be 140.8 Å².

With `CC(CCc1ccccc1)NCC(O)c1ccc(O)c(C(N)=O)c1` (stereo unspecified) [Labetalol hydrochloride], the “collision cross section in nitrogen” value reads like this: under setting [1], 175.7 Å²; under setting [2], 175.2 Å²; under setting [3], 176.8 Å².

With `CCOC(=O)C(C)OC(=O)c1cc(Oc2ccc(C(F)(F)F)cc2Cl)ccc1[N+](=O)[O-]` (stereo unspecified) [Lactofen], the “collision cross section in nitrogen” value came to 212.7 Å² under setting [3] and 196 Å² under setting [4].

On to `CCCCCCCCCCCCN1CCCCCC1=O` [Laurocapram], for which the “collision cross section in nitrogen” value is, setting by setting: under setting [1], 185.5 Å²; under setting [2], 184.7 Å²; under setting [3], 185.4 Å².

As for `CCCCCCCCCCCCOC(=O)c1cc(O)c(O)c(O)c1` [Lauryl gallate], the “collision cross section in nitrogen” value under setting [4] came to 183.1 Å².

Take `CCCCCCCCCCCCN(CCO)CCO` [Lauryldiethanolamine]: the “collision cross section in nitrogen” value stood at 183.7 Å² under setting [1], 184.1 Å² under setting [2] and 180.3 Å² under setting [3].

On to `Cc1ccnc2ccccc12` [Lepidine], for which the “collision cross section in nitrogen” value by setting is: under setting [1], 126.3 Å²; under setting [2], 125.4 Å²; under setting [5], 125.4 Å².

With `CN(C)c1ccc(C(c2ccccc2)c2ccc(N(C)C)cc2)cc1` [Leucomalachite green], the “collision cross section in nitrogen” value stood at 199.9 Å² under setting [1] and 198.9 Å² under setting [2].

`c1ccc([C@H]2CN3CCSC3=N2)cc1` [Levamisole hydrochloride]: the “collision cross section in nitrogen” value was 144.2 Å² under setting [1], 144.8 Å² under setting [2] and 155.8 Å² under setting [3].

With `N[C@@H](Cc1ccc(O)c(O)c1)C(=O)O` [Levodopa], the “collision cross section in nitrogen” value under setting [4] was determined as 141.6 Å².

As for `N[C@@H](Cc1cc(I)c(Oc2cc(I)c(O)c(I)c2)c(I)c1)C(=O)O` [Levothyroxine], the “collision cross section in nitrogen” value under setting [2] was 213.4 Å².

For the molecule `C=CC(C)(CCC=C(C)C)OC(C)=O` (stereo unspecified) [Linalyl acetate], under setting [4], the “collision cross section in nitrogen” value is on record as 152 Å².

Take `CCCCC/C=C\C/C=C\CCCCCCCC(=O)O` [Linoleic acid]: under setting [4], the “collision cross section in nitrogen” value was 175.2 Å².

Take `CON(C)C(=O)Nc1ccc(Cl)c(Cl)c1` [Linuron]: the “collision cross section in nitrogen” value under setting [4] is given as 151.1 Å².

Regarding `O=C(O)c1cc(C(=O)O)cc(S(=O)(=O)O)c1` [Lithium 3-carboxy-5-sulfobenzoate], the “collision cross section in nitrogen” value under setting [4] was 147.3 Å².

Take `O=S(=O)(NS(=O)(=O)C(F)(F)F)C(F)(F)F` [Lithium bis[(trifluoromethyl)sulfonyl]azanide]: the “collision cross section in nitrogen” value under setting [4] is recorded as 129.9 Å².

As for `O=S(=O)(O)C(F)(F)C(F)(F)C(F)(F)C(F)(F)C(F)(F)C(F)(F)C(F)(F)C(F)(F)F` [Lithium perfluorooctanesulfonate], under setting [4], the “collision cross section in nitrogen” value was 168.3 Å².

Regarding `C[C@H](CCC(=O)O)[C@H]1CC[C@H]2[C@@H]3CC[C@@H]4C[C@H](O)CC[C@]4(C)[C@H]3CC[C@]12C` [Lithocholic acid], the “collision cross section in nitrogen” value under setting [4] was 203 Å².

In the case of `CCOC(=O)N1CCC(=C2c3ccc(Cl)cc3CCc3cccnc32)CC1` [Loratadine], the “collision cross section in nitrogen” value reads like this: under setting [1], 187.9 Å²; under setting [2], 187.4 Å²; under setting [3], 195.1 Å².

Take `CCCCc1nc(Cl)c(CO)n1Cc1ccc(-c2ccccc2-c2nnn[nH]2)cc1` [Losartan potassium]: the “collision cross section in nitrogen” value was determined as 201.6 Å² under setting [1], 201.2 Å² under setting [2], 204.9 Å² under setting [3] and 203.4 Å² under setting [4].

As to `CC[C@H](C)C(=O)O[C@H]1C[C@@H](C)C=C2C=C[C@H](C)[C@H](CC[C@@H]3C[C@@H](O)CC(=O)O3)[C@H]21` [Lovastatin], under setting [3], the “collision cross section in nitrogen” value is 203.9 Å².

Take `O=C(NC(=O)c1c(F)cccc1F)Nc1cc(Cl)c(OC(F)(F)C(F)C(F)(F)F)cc1Cl` (stereo unspecified) [Lufenuron]: under setting [4], the “collision cross section in nitrogen” value amounted to 205.4 Å².

As to `CCCCc1ccc2c(n1)[C@@H](c1ccc(OC)cc1C[C@H](C)C(=O)O)[C@H](C(=O)O)[C@H]2c1ccc2c(c1)OCO2` [MK-547], the “collision cross section in nitrogen” value under setting [1] is 231 Å², the “collision cross section in nitrogen” value under setting [2] was determined as 230.9 Å², the “collision cross section in nitrogen” value under setting [3] is recorded as 234.1 Å² and the “collision cross section in nitrogen” value under setting [4] is reported as 236.4 Å².

On to `CCn1nc(Cc2ccccc2)cc1C1CCN(C[C@H]2C[C@H](N(C)[C@@H](C(=O)O)C(C)C)C[C@@H]2c2cccc(F)c2)CC1` [MK-578], for which the “collision cross section in nitrogen” value is 243.1 Å² under setting [1], 243.4 Å² under setting [2], 241.9 Å² under setting [3] and 247.7 Å² under setting [4].

For `CO[C@@H]1COCC[C@@H]1N[C@@H]1CC[C@@](C(=O)N2CCc3ncc(C(F)(F)F)cc3C2)(C(C)C)C1` [MK-812], the “collision cross section in nitrogen” value runs as follows: under setting [2], 214.6 Å²; under setting [3], 219.6 Å²; under setting [4], 207.8 Å².

With `Fc1ccccc1[C@@H](F)CO[C@H]1CC[C@H](Nc2[nH]cnc3nncc2-3)CC1` [MK-968], the “collision cross section in nitrogen” value under setting [1] stood at 187.8 Å², the “collision cross section in nitrogen” value under setting [2] came out at 187.7 Å², the “collision cross section in nitrogen” value under setting [3] stood at 191.4 Å² and the “collision cross section in nitrogen” value under setting [4] is 198.9 Å².

As to `O=[N+]([O-])O` [Magnesium dinitrate hexahydrate], the “collision cross section in nitrogen” value under setting [4] came out at 104.1 Å².

Turning to `CN(C)c1ccc(C(=C2C=CC(=[N+](C)C)C=C2)c2ccccc2)cc1` [Malachite green], the “collision cross section in nitrogen” value was 188.5 Å² (ion source: APCI, ion mode: Positive, ion type: [M]+ (permanent cation)) and 188.9 Å² (ion source: ESI, ion mode: Positive, ion type: [M]+ (permanent cation)).

On to `CCOC(=O)CC(SP(=O)(OC)OC)C(=O)OCC` (stereo unspecified) [Malaoxon], for which the “collision cross section in nitrogen” value under setting [3] was found to be 165.7 Å².

As to `CCOC(=O)CC(SP(=S)(OC)OC)C(=O)OCC` (stereo unspecified) [Malathion], the “collision cross section in nitrogen” value under setting [3] is listed as 172.2 Å².

Turning to `O=c1ccc(=O)[nH][nH]1` [Maleic hydrazide], the “collision cross section in nitrogen” value under setting [4] was 117.8 Å².

As to `O=C(O)CC(O)C(=O)O` (stereo unspecified) [Malic acid], the “collision cross section in nitrogen” value under setting [4] was determined as 116.9 Å².

Turning to `Cc1occc(=O)c1O` [Maltol], under setting [1], the “collision cross section in nitrogen” value was 119.5 Å².

In the case of `CNCCCC12CCC(c3ccccc31)c1ccccc12` [Maprotiline hydrochloride], the “collision cross section in nitrogen” value runs as follows: under setting [1], 164.1 Å²; under setting [2], 164.3 Å².

`CC(=O)O[C@]1(C(C)=O)CC[C@H]2[C@@H]3C[C@H](C)C4=CC(=O)CC[C@]4(C)[C@H]3CC[C@@]21C` [Medroxyprogesterone acetate]: the “collision cross section in nitrogen” value under setting [3] was determined as 212.7 Å².

On to `Cc1cccc(Nc2ccccc2C(=O)O)c1C` [Mefenamic acid], for which the “collision cross section in nitrogen” value turned out to be 152.3 Å² under setting [5] and 160.9 Å² under setting [4].

For `CCOC(=O)C1=NN(c2ccc(Cl)cc2Cl)C(C)(C(=O)OCC)C1` (stereo unspecified) [Mefenpyr-diethyl], the “collision cross section in nitrogen” value under setting [3] worked out at 194.8 Å².

As for `COc1ccc2[nH]cc(CCNC(C)=O)c2c1` [Melatonin], the “collision cross section in nitrogen” value by setting is: under setting [1], 153.7 Å²; under setting [2], 153.3 Å²; under setting [3], 156.9 Å²; under setting [4], 156 Å².

Consider `C=C1C[C@H]2[C@@H]3C=C(C)C4=CC(=O)CC[C@]4(C)[C@H]3CC[C@]2(C)[C@@]1(OC(C)=O)C(C)=O` [Melengestrol acetate], for which the “collision cross section in nitrogen” value reads like this: under setting [1], 201.5 Å²; under setting [2], 200.3 Å².

`Cc1cnc(NC(=O)C2=C(O)c3ccccc3S(=O)(=O)N2C)s1` [Meloxicam]: the “collision cross section in nitrogen” value runs as follows: under setting [1], 179.2 Å²; under setting [2], 178.5 Å²; under setting [3], 184.2 Å²; under setting [4], 177.7 Å².

In the case of `CC#Cc1cc(C)nc(Nc2ccccc2)n1` [Mepanipyrim], the “collision cross section in nitrogen” value by setting is: under setting [1], 152.6 Å²; under setting [2], 153.1 Å²; under setting [5], 147.3 Å²; under setting [4], 160.6 Å².

`Cc1ccccc1C(=O)Nc1cccc(OC(C)C)c1` [Mepronil]: the “collision cross section in nitrogen” value worked out at 169.9 Å² under setting [1], 169.4 Å² under setting [2], 180.1 Å² under setting [3] and 172.6 Å² under setting [4].

For the molecule `N#Cc1ccc(CC(=NNC(=O)Nc2ccc(OC(F)(F)F)cc2)c2cccc(C(F)(F)F)c2)cc1` [Metaflumizone], the “collision cross section in nitrogen” value is 212.4 Å² under setting [2] and 220.1 Å² under setting [3].

As for `COCC(=O)N(c1c(C)cccc1C)[C@H](C)C(=O)OC` [Metalaxyl-M], the “collision cross section in nitrogen” value came out at 160.5 Å² under setting [1], 160 Å² under setting [2] and 168.8 Å² under setting [3].

For the molecule `COCC(=O)N(c1c(C)cccc1C)C(C)C(=O)OC` (stereo unspecified) [Metalaxyl], the “collision cross section in nitrogen” value came to 160.5 Å² under setting [1], 160.8 Å² under setting [2] and 169.4 Å² under setting [3].

Regarding `Cc1nnc(-c2ccccc2)c(=O)n1N` [Metamitron], the “collision cross section in nitrogen” value worked out at 144.9 Å² under setting [1] and 145.2 Å² under setting [2].

For `Cc1cc(C)cc(OCC2CNC(=O)O2)c1` (stereo unspecified) [Metaxalone], the “collision cross section in nitrogen” value under setting [3] turned out to be 152.3 Å².

Regarding `CC1(C)CCC(Cc2ccc(Cl)cc2)C1(O)Cn1cncn1` (stereo unspecified) [Metconazole], the “collision cross section in nitrogen” value by setting is: under setting [1], 169.3 Å²; under setting [2], 169.1 Å²; under setting [3], 176.1 Å².

For `CC1CN1P(=O)(N1CC1C)N1CC1C` (stereo unspecified) [Metepa], the “collision cross section in nitrogen” value runs as follows: under setting [1], 142.5 Å²; under setting [2], 143.2 Å²; under setting [3], 159.9 Å².

On to `CN(C)C(=N)NC(=N)N` [Metformin], for which the “collision cross section in nitrogen” value runs as follows: under setting [1], 125.1 Å²; under setting [2], 125.7 Å².

Take `CNC(=O)N(C)c1nc2ccccc2s1` [Methabenzthiazuron]: the “collision cross section in nitrogen” value reads like this: under setting [1], 144.2 Å²; under setting [2], 144.7 Å².

Regarding `CN(C)CCN(Cc1cccs1)c1ccccn1` [Methapyrilene fumarate], the “collision cross section in nitrogen” value reads like this: under setting [2], 157.8 Å²; under setting [3], 160.3 Å².
